Source: ChEMBL document CHEMBL4402539, “Biological effects and activity optimization of small-molecule, drug-like synthetic anion transporters” (Eur J Med Chem, 2019)

Key:
Format in all cases: functional, cell-based
HeLa = experiment: Cytotoxicity in human HeLa cells assessed as reduction in cell viability after 18 hrs by MTT assay
HCT-116 = experiment: Cytotoxicity in human HCT116 cells assessed as reduction in cell viability after 18 hrs by MTT assay; conditions: HCT-116, 18 h
CAPAN-1 = experiment: Cytotoxicity in human Capan1 cells assessed as reduction in cell viability after 18 hrs by MTT assay; conditions: CAPAN-1, 18 h
A549 = experiment: Cytotoxicity in human A549 cells assessed as reduction in cell viability after 18 hrs by MTT assay; conditions: A549, 18 h

Measured: IC50

CC1(C)c2ccc([nH]2)C2(C)CCCNC(=O)c3cccc(n3)C(=O)NCCCC(C)(c3ccc1[nH]3)c1ccc([nH]1)C(C)(C)c1ccc2[nH]1
10 to 15 µM: HeLa | HCT-116 | CAPAN-1 | A549

CC1(C)c2ccc([nH]2)C2(C)CCCCNC(=O)c3cccc(n3)C(=O)NCCCCC(C)(c3ccc1[nH]3)c1ccc([nH]1)C(C)(C)c1ccc2[nH]1
10 to 15 µM: HeLa | HCT-116 | CAPAN-1 | A549
